From PMC7479006, “Effect of high-fat diet on the pharmacokinetics and safety of flumatinib in healthy Chinese subjects” (Cancer Chemotherapy and Pharmacology, 2020)
Where two headings read alike, the source gives them in different places.

Experiments:
[1] = Safety evaluation (adverse events, NCI CTCAE v4.03) after a single oral 400 mg dose of flumatinib mesylate; assay type: in vivo, human (healthy Chinese subjects); set-up: TEAE, Incidence rate / TEAE related to the study drug, Incidence rate / SAE related to the study drug, Incidence rate / TEAE related to death, Incidence rate / TEAE related to withdrawal, Incidence rate: unit not given here
Experimental: All subjects who participated in the study were included in the safety analysis. Safety was evaluated by vital signs, physical examination, ECG, laboratory examination, adverse events (AEs), and combined medication. All adverse events that occurred during the trial were classified into mild, moderate and severe levels based on NCI CTCAE v4.03.

[2] = Biopharmaceutics Classification System (BCS) class; assay type: physicochemical; settings: based on the BCS Guidance of the year 2000
[3] = rats, oral administration, preclinical studies; cited from earlier work
[4] = beagles, oral administration, preclinical studies; cited from earlier work
[5] = preclinical studies; tissue drug concentration higher than plasma concentration; cited from earlier work
[6] = set-up: method as in PMID 20703259; settings: doses in the range of 200–1000 mg; cited from earlier work
[7] = Pharmacokinetics of flumatinib, M1 and M3 in plasma after a single oral 400 mg dose of flumatinib mesylate tablets, fasting vs high-fat diet (LC-MS/MS, non-compartmental); settings: for AUC0-∞ LSGM ratio high-fat diet/fasting (%) (90% CI) / AUC0–t LSGM ratio high-fat diet/fasting (%) (90% CI) / Cmax LSGM ratio high-fat diet/fasting (%) (90% CI): N = 11, single oral 400 mg; for AUC(0-inf) / AUC(0-t) / Cmax / MRT / Tmax / half-life: human, po, 400 mg; for Tmax: Tmax median(range)
Experimental: The subjects were randomized 24 h in advance in one of the two following groups. Group A: at least 10 h after fasting, oral flumatinib administration of 400 mg (2 tablets, day 1, first dose); the washout period was 14 days, half an hour after high-fat diet (timed from the start of diet) oral flumatinib administration of 400 mg (2 tablets, day 15,second dose). Subjects in group B followed the opposite administration sequence from those in group A. In groups A and B, the high-fat diet contained 800 ~ 1000Kcal (about 50% from fat) (meal composition is detailed Table 1).
Blood samples for pharmacokinetic (PK) evaluation were collected at 0 h before the initiation of dosing (pre-dose), and at 0.5, 1, 1.5, 2, 2.5, 3, 4, 5, 6, 8, 10, 12, 24, 48, 72, and 96 h after dosing. Blood samples were centrifuged at 2000g for 10 min at 4 ℃. Centrifugation was completed within 60 min after sample collection. The plasma was stored at − 70 °C for further analysis. Plasma concentrations of flumatinib and its main metabolites (M1 and M3) were determined using liquid chromatography-mass spectrometry (LC–MS/MS) [20].
Phoenix WinNonlin Version 7.0 (Pharsight Corporation, Sunnyvale, CA, USA) software was used to calculate the pharmacokinetic parameters (Tmax, Cmax, AUC0–t, AUC0–∞, t1/2, V/F, CL/F) of flumatinib and its main metabolites using a non-compartmental method (NCA module). Linear Up Log Down trapezoidal method was used for AUC calculation. The BE module of WinNonLin was used to analyze AUC0–t, AUC0–∞, and Cmax of flumatinib in fed and fasting states after logarithmic conversion. The treatment group (fasting, high-fat diet), the treatment sequence (A, B), and treatment phase were fixed effects in the model, and the subjects nested in the sequence were random effects. The adjusted mean difference (fasting/high-fat diet) and its 90% confidence interval estimated by the model, were taken as the negative number to obtain the corresponding PK parameter geometric mean ratio (postprandial/fasting), to estimate its 90% confidence interval, and to evaluate the effect of a high-fat diet on the pharmacokinetics of flumatinib.

[8] = set-up: method as in PMID 26096139; settings: healthy subjects; cited from earlier work
[9] = set-up: method as in PMID 25511575; settings: healthy subjects; cited from earlier work
[10] = Fasting, the first period (N = 6)
[11] = Fasting, the second period (N = 5)
[12] = High-fat diet, the first period (N = 6)
[13] = High-fat diet, the second period (N = 6)
[14] = Fasting (N = 11), mean ± SD, single oral 400 mg, listed as Flumatinib
[15] = High-fat diet (N = 12), mean ± SD, single oral 400 mg
[16] = High-fat diet (N = 12), mean ± SD, single oral 400 mg, listed as Flumatinib

## Cc1ncc(NC(=O)c2ccc(CN3CCN(C)CC3)c(C(F)(F)F)c2)cc1Nc1nccc(-c2cccnc2)n1 [flumatinib]
[1]; [10]
  SAE related to the study drug, Incidence rate: 0.0
  SAE related to the study drug, Number: 0
  SAE related to the study drug, Time: 0
  TEAE related to death, Incidence rate: 0.0
  TEAE related to death, Number: 0
  TEAE related to death, Time: 0
  TEAE related to the study drug, Incidence rate: 83.3
  TEAE related to the study drug, Number: 5
  TEAE related to the study drug, Time: 11
  TEAE related to withdrawal, Incidence rate: 0.0
  TEAE related to withdrawal, Number: 0
  TEAE related to withdrawal, Time: 0
  TEAE, Incidence rate: 100.0
  TEAE, Number: 6
  TEAE, Time: 14
[1]; [11]
  SAE related to the study drug, Incidence rate: 0.0
  SAE related to the study drug, Number: 0
  SAE related to the study drug, Time: 0
  TEAE related to death, Incidence rate: 0.0
  TEAE related to death, Number: 0
  TEAE related to death, Time: 0
  TEAE related to the study drug, Incidence rate: 60.0
  TEAE related to the study drug, Number: 3
  TEAE related to the study drug, Time: 4
  TEAE related to withdrawal, Incidence rate: 0.0
  TEAE related to withdrawal, Number: 0
  TEAE related to withdrawal, Time: 0
  TEAE, Incidence rate: 60.0
  TEAE, Number: 3
  TEAE, Time: 5
[1]; Fasting, total (N = 11)
  SAE related to the study drug, Incidence rate: 0.0
  SAE related to the study drug, Number: 0
  SAE related to the study drug, Time: 0
  TEAE related to death, Incidence rate: 0.0
  TEAE related to death, Number: 0
  TEAE related to death, Time: 0
  TEAE related to the study drug, Incidence rate: 72.7
  TEAE related to the study drug, Time: 15
  TEAE related to withdrawal, Incidence rate: 0.0
  TEAE related to withdrawal, Number: 0
  TEAE related to withdrawal, Time: 0
  TEAE, Incidence rate: 81.8
  TEAE, Time: 19
[1]; [12]
  SAE related to the study drug, Incidence rate: 0.0
  SAE related to the study drug, Number: 0
  SAE related to the study drug, Time: 0
  TEAE related to death, Incidence rate: 0.0
  TEAE related to death, Number: 0
  TEAE related to death, Time: 0
  TEAE related to the study drug, Incidence rate: 50.0
  TEAE related to the study drug, Number: 3
  TEAE related to the study drug, Time: 6
  TEAE related to withdrawal, Incidence rate: 16.7
  TEAE related to withdrawal, Number: 1
  TEAE related to withdrawal, Time: 1
  TEAE, Incidence rate: 100.0
  TEAE, Number: 6
  TEAE, Time: 18
[1]; [13]
  SAE related to the study drug, Incidence rate: 0.0
  SAE related to the study drug, Number: 0
  SAE related to the study drug, Time: 0
  TEAE related to death, Incidence rate: 0.0
  TEAE related to death, Number: 0
  TEAE related to death, Time: 0
  TEAE related to the study drug, Incidence rate: 66.7
  TEAE related to the study drug, Number: 4
  TEAE related to the study drug, Time: 6
  TEAE related to withdrawal, Incidence rate: 0.0
  TEAE related to withdrawal, Number: 0
  TEAE related to withdrawal, Time: 0
  TEAE, Incidence rate: 66.7
  TEAE, Number: 4
  TEAE, Time: 7
[1]; High-fat diet, total (N = 12)
  SAE related to the study drug, Incidence rate: 0.0
  SAE related to the study drug, Number: 0
  SAE related to the study drug, Time: 0
  TEAE related to death, Incidence rate: 0.0
  TEAE related to death, Number: 0
  TEAE related to death, Time: 0
  TEAE related to the study drug, Incidence rate: 58.3
  TEAE related to the study drug, Time: 12
  TEAE related to withdrawal, Incidence rate: 8.3
  TEAE related to withdrawal, Number: 1
  TEAE related to withdrawal, Time: 1
  TEAE, Incidence rate: 83.3
  TEAE, Time: 25
[1]; fasting group
  TEAE incidence: 81.8%
  TEAE related to the study drug, incidence: 72.7%
[1]; high-fat diet group
  TEAE incidence: 83.3%
  TEAE related to the study drug, incidence: 58.3%
[1]; single oral dose of 400 mg, fasting or high-fat diet
  Safety and tolerability: safe and well tolerated
[2]
  BCS class: BCS Class III
[3]
  Time to maximum blood concentration: about 5 h
[4]
  Time to maximum blood concentration: about 5 h
[5]
  Tissue distribution: widely distributed in tissues
[6]
  Dose relation of Cmax and AUC0–t: linearly related to doses
[7]; Fasting (N = 11), mean ± SD, single oral 400 mg
  CL/F: 399 ± 229 L/h
[7]; [14]
  CL/F: 661 ± 380 L/h
  V/F: 11,700 ± 5130 L
[7]; [15]
  CL/F: 661 ± 380 L/h
  V/F: 11700 ± 5130 L
[7]; [16]
  CL/F: 399 ± 229 L/h
  V/F: 8470 ± 4130 L
[7]
  AUC0-∞ LSGM ratio high-fat diet/fasting (%) (90% CI): 166.87%
  AUC0–t LSGM ratio high-fat diet/fasting (%) (90% CI): 167.43%
  Cmax LSGM ratio high-fat diet/fasting (%) (90% CI): 281.65%
[7]; listed as Flumatinib
  AUC0-∞ LSGM ratio high-fat diet/fasting (%) (90% CI): 167 (143, 194) %
  AUC0–t LSGM ratio high-fat diet/fasting (%) (90% CI): 167 (144, 195) %
  Cmax LSGM ratio high-fat diet/fasting (%) (90% CI): 282 (226, 351) %
[7]; plasma, AUC0-∞ (least-square geometric mean), Fasting (N = 11), food-effect analysis, single oral 400 mg
  AUC(0-inf): 710 ng·h/mL
[7]; plasma, AUC0-∞ (least-square geometric mean), High-fat diet (N = 11), food-effect analysis, single oral 400 mg
  AUC(0-inf): 1180 ng·h/mL
[7]; plasma, AUC0-∞, Fasting (N = 11), mean ± SD, single oral 400 mg
  AUC(0-inf): 847 ± 572 ng·h/mL
[7]; plasma, AUC0-∞, High-fat diet (N = 12), mean ± SD, single oral 400 mg
  AUC(0-inf): 1280 ± 586 ng·h/mL
[7]; plasma, AUC0–t (least-square geometric mean), Fasting (N = 11), food-effect analysis, single oral 400 mg
  AUC(0-t): 696 ng·h/mL
[7]; plasma, AUC0–t (least-square geometric mean), High-fat diet (N = 11), food-effect analysis, single oral 400 mg
  AUC(0-t): 1170 ng·h/mL
[7]; plasma, AUC0–t, Fasting (N = 11), mean ± SD, single oral 400 mg
  AUC(0-t): 832 ± 566 ng·h/mL
[7]; plasma, AUC0–t, High-fat diet (N = 12), mean ± SD, single oral 400 mg
  AUC(0-t): 1260 ± 582 ng·h/mL
[7]; plasma, Cmax (least-square geometric mean), Fasting (N = 11), food-effect analysis, single oral 400 mg
  Cmax: 43.7 ng/mL
[7]; plasma, Cmax (least-square geometric mean), High-fat diet (N = 11), food-effect analysis, single oral 400 mg
  Cmax: 123 ng/mL
[7]; plasma, Cmax, Fasting (N = 11), mean ± SD, single oral 400 mg
  Cmax: 50.7 ± 32.5 ng/mL
[7]; plasma, Cmax, High-fat diet (N = 12), mean ± SD, single oral 400 mg
  Cmax: 132 ± 54.5 ng/mL
[7]; plasma, Fasting (N = 11), mean ± SD, single oral 400 mg
  MRT: 17.2 ± 3.66 h
[7]; plasma, High-fat diet (N = 12), mean ± SD, single oral 400 mg
  MRT: 19.2 ± 3.37 h
[7]; plasma, Fasting (N = 11), single oral 400 mg
  Tmax: 2.5 h
[7]; plasma, High-fat diet (N = 12), single oral 400 mg
  Tmax: 3 h
[7]; plasma, t1/2, Fasting (N = 11), mean ± SD, single oral 400 mg
  half-life: 13.3 ± 2.52 h
[7]; plasma, t1/2, High-fat diet (N = 12), mean ± SD, single oral 400 mg
  half-life: 15.5 ± 4.67 h
[7]; single oral 400 mg
  Increase in the exposure when taken with food: 67%
[7]; single oral 400 mg, plasma
  Increase of AUC0–∞ after high-fat diet over fasted state: 1.6 fold
  Increase of Cmax after high-fat diet over fasted state: nearly tripled

## N#Cc1ccnc(N2C(=O)CC[C@H]2C(=O)N(c2cncc(F)c2)[C@H](C(=O)NC2CC(F)(F)C2)c2ccccc2Cl)c1 [ivosidenib]
[8]
  Increase in Cmax after a high-fat diet compared to fasting: 98%

## Cc1cn(-c2cc(NC(=O)c3ccc(C)c(Nc4nccc(-c5cccnc5)n4)c3)cc(C(F)(F)F)c2)cn1 [nilotinib]
[9]
  AUC higher when taken with food than fasting: 82%
  Cmax higher when taken with food than fasting: 112%
